According to patent US12612368B2 (Remedy Plan, Inc., priority 2019, dated 2026):
Read-outs that look alike come from different tables or passages of the source.

Key:
[1] = tested on: MV-4-11 cells; experiment: Cell viability in MV-4-11 cells (CellTiter Glo2); type: cell-based; conditions: Homo sapiens, MV4-11, 96 h, 8-point dose response, 4 days
Protocol: Approximately 10,000 MV-4-11 cells per well of a 96-well plate were treated with DMSO (no drug control) or each compound in Tables E1 and E2 in an 8-point dose response for 4 days, Cell viability was measured using CellTiter Glo2. The ICse of each compound was determined using CDD Vault.

[2] = target: T1, NAMPT (Homo sapiens, UniProt P43490); experiment: NAMPT Activity Assay (Abcam #ab221819); type: biochemical; conditions: purified NAMPT, two-step reaction, OD450 nm; percent inhibition vs no drug; compound concentration not stated
T1 construct: purchased Abcam ab221819

[3] = CellTiter Glo2 (Table E2), read-out: MV-4-11 Cell Viability, MV-4-11 IC50
[4] = CellTiter Glo2 (Table E1), read-out: MV-4-11 IC50

T1 sequence (P43490 whole entry): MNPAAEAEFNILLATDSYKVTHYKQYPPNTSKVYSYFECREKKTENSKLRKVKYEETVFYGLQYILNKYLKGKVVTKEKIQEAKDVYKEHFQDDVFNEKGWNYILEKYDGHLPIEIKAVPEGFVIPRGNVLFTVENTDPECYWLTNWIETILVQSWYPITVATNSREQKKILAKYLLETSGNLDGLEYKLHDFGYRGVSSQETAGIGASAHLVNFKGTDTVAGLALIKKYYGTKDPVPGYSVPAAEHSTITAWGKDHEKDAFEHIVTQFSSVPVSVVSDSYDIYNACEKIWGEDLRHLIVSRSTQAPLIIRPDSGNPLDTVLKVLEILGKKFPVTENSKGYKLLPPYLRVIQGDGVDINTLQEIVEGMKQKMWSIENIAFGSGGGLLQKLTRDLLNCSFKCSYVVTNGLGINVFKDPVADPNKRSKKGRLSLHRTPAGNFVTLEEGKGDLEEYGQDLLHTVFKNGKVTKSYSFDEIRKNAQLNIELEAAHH

IC50 [1, 3] [nM] | NAMPT Inhibition Code [2] | IC50 [1, 4] [nM] | SMILES
5180 | A (A = <33% inhibition) | – | CC(=O)N(CC(F)F)c1ccc(-c2ccc(C(=O)NCc3cccnc3C)cn2)cc1 [Compound I-449, 6-[4-[acetyl(2,2-difluoroethyl)amino]phenyl]-N-[(2-methyl-3-pyridyl)methyl]pyridine-3-carboxamide]
– | A (A = <33% inhibition) | 6080 | CCOC(=O)N(C)c1ccc(-c2ccc(C(=O)NCc3cccnc3)nc2)cc1 [Compound I-330, ethyl N-methyl-N-[4-[6-(3-pyridylmethylcarbamoyl)-3-pyridyl]phenyl]carbamate]
493 | A (A = <33% inhibition) | – | CC(=O)N(CC1COC1)c1ccc(-c2ccc(C(=O)NCc3cccnc3)cn2)cc1 [Compound I-447, 6-[4-[acetyl(oxetan-3-ylmethyl)amino]phenyl]-N-(3-pyridylmethyl)pyridine-3-carboxamide]
> 694 | A (A = <33% inhibition) | – | CCC(=O)N(C)c1ccc(-c2ccc(C(=O)NCc3cccnc3C)cc2)cc1Cl [Compound I-460, 4-[3-chloro-4-[methyl(propanoyl)amino]phenyl]-N-[(2-methyl-3-pyridyl)methyl]benzamide]
– | A (A = <33% inhibition) | 691 | CC(=O)N(CCNC(=O)OC(C)(C)C)c1ccc(-c2ccc(C(=O)NCc3cccnc3)cn2)cc1 [Compound I-448, tert-butyl N-[2-[N-acetyl-4-[5-(3-pyridylmethylcarbamoyl)-2-pyridyl]anilino]ethyl]carbamate]
20.6 | B (B = ≥33 to <66% inhibition) | – | CC(=O)N(CC1CC(F)(F)C1)c1ccc(-c2ccc(C(=O)NCc3cccnc3)cn2)cc1C [Compound I-600, 6-[4-[Acetyl-[(3,3-difluorocyclobutyl)methyl]amino]-3-methyl-phenyl]-N-(3-pyridylmethyl)pyridine-3-carboxamide]
2280 | A (A = <33% inhibition) | – | CC(=O)N(CC1CC1)c1ccc(-c2ccc(C(=O)NCc3cccnc3C)cn2)cc1 [Compound I-500, 6-[4-[Acetyl(cyclopropylmethyl)amino]phenyl]-N-[(2-methyl-3-pyridyl)methyl]pyridine-3-carboxamide]

Second part, the molecule before the results:

SMILES | IC50 [1, 3] [nM] | NAMPT Inhibition Code [2] | IC50 [1, 4] [nM]
CCCN(C(C)=O)c1ccc(-c2ccc(C(=O)NCc3cccnc3C)cn2)cc1Cl [Compound I-458, 6-[4-[acetyl(propyl)amino]-3-chloro-phenyl]-N-[(2-methyl-3-pyridyl)methyl]pyridine-3-carboxamide] | 1710 | A (A = <33% inhibition) | –
CC(=O)N(CC1CC1)c1ccc(-c2ccc(C(=O)Nc3cccnc3)cn2)cc1Cl [Compound I-683, 6-[4-[Acetyl(cyclopropylmethyl)amino]-3-chloro-phenyl]-N-(3-pyridyl)pyridine-3-carboxamide] | > 997 | C (C = ≥66% inhibition) | –
COC(=O)c1cc(-c2ccc(C(=O)NCc3cccnc3)cn2)ccc1N(C)C(C)=O [Compound I-662, Methyl 2-[acetyl(methyl)amino]-5-[5-(3-pyridylmethylcarbamoyl)-2-pyridyl]benzoate] | 36 | C (C = ≥66% inhibition) | –
CC(=O)N(C)c1ccc(-c2ccc(C(=O)NCc3cccnc3)cn2)cc1C [Compound I-425, 6-[4-[acetyl(methyl)amino]-3-methyl-phenyl]-N-(3-pyridylmethyl)pyridine-3-carboxamide] | – | A (A = <33% inhibition) | 1670
CC(=O)N(CC1CC1)c1ccc(-c2ccc(C(=O)Nc3ccncc3)cn2)cc1Cl [Compound I-684, 6-[4-[Acetyl(cyclopropylmethyl)amino]-3-chloro-phenyl]-N-(4-pyridyl)pyridine-3-carboxamide] | 341 | A (A = <33% inhibition) | –
